Test results published in patent publication US11566007B2, “Ras inhibitors” (Revolution Medicines, Inc., priority 2019, dated 2023).

Assays:
KRAS G13D = KRAS G13D (Homo sapiens (Human), UniProt P01116+P62937, G13D); assay: Ras-Raf (BRAF RBD) disruption / FRET / MOA assay, KRAS G13D; format: biochemical; conditions: read-out: IC50* KRAS G13D FRET data
Outline: (§1)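 Ternary complex formation (Ras–compound–cyclophilin A) displacing BRAF RBD, monitored by TR-FRET. Three hours at 25° C with compound (top 30 μM final), then 1.5 h with the labelled antibodies. Lower ratio than DMSO indicates disruption; IC50 reported.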

KRAS G12D = KRAS G12D (Homo sapiens (Human), UniProt P01116+P62937, G12D); assay: Ras-Raf (BRAF RBD) disruption / FRET / MOA assay, KRAS G12D; format: biochemical; conditions: Ras-Raf disruption/FRET/MOA assay; class symbols; read-out: KRAS G12D FRET data IC50
Outline: as §1

KRAS G12V = KRAS G12V (Homo sapiens (Human), UniProt P01116+P62937, G12V); assay: Ras-Raf (BRAF RBD) disruption / FRET / MOA assay, KRAS G12V; format: biochemical; conditions: read-out: IC50* KRAS G12V FRET data
Outline: as §1

K-Ras G13C = K-Ras G13C (Homo sapiens (Human), UniProt P01116+P62937, G13C); assay: Ras-Raf (BRAF RBD) disruption / FRET / MOA assay, KRAS G13C; format: biochemical; conditions: KRAS G13C; Ras-Raf disruption/FRET/MOA assay; read-out: IC50* KRAS G13C FRET data
Outline: as §1

NRAS Q61R = NRAS Q61R (Homo sapiens (Human), UniProt P01111+P62937, Q61R); assay: Ras-Raf (BRAF RBD) disruption / FRET / MOA assay, NRAS Q61R; format: biochemical; conditions: NRAS Q61R; Ras-Raf disruption/FRET/MOA assay; read-out: IC50* NRAS Q61R FRET data
Outline: (§2)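 Compounds were tested as a 10-point 3-fold dilution series from 30 μM final for their ability to drive ternary complex formation between nucleotide-loaded Ras and cyclophilin A, displacing the BRAF RBD. After 3 h at 25° C., anti-His Eu-W1024 (10 nM) and anti-GST allophycocyanin (50 nM) were added for 1.5 h. A TR-FRET ratio decrease versus DMSO gave IC50.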

KRAS WT = KRAS WT (Homo sapiens (Human), UniProt P01116+P62937); assay: Ras-Raf (BRAF RBD) disruption / FRET / MOA assay, KRAS WT; format: biochemical; conditions: read-out: IC50* KRAS WT FRET data
Outline: as §1

KRAS G12S = KRAS G12S (Homo sapiens (Human), UniProt P01116+P62937, G12S); assay: Ras-Raf (BRAF RBD) disruption / FRET / MOA assay, KRAS G12S; format: biochemical; conditions: Ras-Raf disruption/FRET/MOA assay; class symbols; read-out: KRAS G12S FRET data IC50
Outline: as §1

NCI-H358 (K-Ras G12C) = assay: CellTiter-Glo cell viability assay, NCI-H358; format: cell-based, human; conditions: Homo sapiens, NCI-H358, 120 h, NCI-H358, 5-day treatment; class symbols; read-out: Additional H358 Cell Viability assay data (K-Ras G12C, IC50)
Outline: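 Four-parameter logistic fits were applied to luminescence data normalized against DMSO-treated wells. Readings were taken on day 5 following direct compound addition, after roughly 30 minutes at room temperature.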

NRAS WT = NRAS WT (Homo sapiens (Human), UniProt P01111+P62937); assay: Ras-Raf (BRAF RBD) disruption / FRET / MOA assay, NRAS WT; format: biochemical; conditions: read-out: IC50* NRAS WT FRET data
Outline: as §2

NRAS Q61K = NRAS Q61K (Homo sapiens (Human), UniProt P01111+P62937, Q61K); assay: Ras-Raf (BRAF RBD) disruption / FRET / MOA assay, NRAS Q61K; format: biochemical; conditions: NRAS Q61K; Ras-Raf disruption/FRET/MOA assay; read-out: IC50* NRAS Q61K FRET data
Outline: as §2

KRAS G12S, sequence (P01116-2 other isoform, or with tags, fused parts or gaps G12S): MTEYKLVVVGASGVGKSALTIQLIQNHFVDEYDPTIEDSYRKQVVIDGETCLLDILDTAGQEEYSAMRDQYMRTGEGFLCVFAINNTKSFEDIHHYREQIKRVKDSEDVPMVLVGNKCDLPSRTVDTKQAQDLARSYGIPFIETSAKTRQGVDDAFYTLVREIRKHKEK
KRAS G12S, sequence (P62937 whole entry): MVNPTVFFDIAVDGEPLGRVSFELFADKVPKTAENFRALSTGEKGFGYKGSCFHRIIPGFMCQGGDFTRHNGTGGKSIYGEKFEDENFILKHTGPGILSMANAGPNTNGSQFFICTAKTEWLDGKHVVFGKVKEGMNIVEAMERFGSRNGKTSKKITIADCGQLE
KRAS WT, sequence (P01116-2 other isoform, or with tags, fused parts or gaps): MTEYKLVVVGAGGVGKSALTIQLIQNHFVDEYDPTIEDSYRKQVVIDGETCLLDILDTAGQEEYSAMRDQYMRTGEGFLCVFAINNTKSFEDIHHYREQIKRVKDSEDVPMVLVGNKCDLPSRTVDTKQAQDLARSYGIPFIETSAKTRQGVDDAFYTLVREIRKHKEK
KRAS WT, sequence (P62937 whole entry): as the sequence (P62937 whole entry) above
KRAS G13D, sequence (P01116-2 other isoform, or with tags, fused parts or gaps G13D): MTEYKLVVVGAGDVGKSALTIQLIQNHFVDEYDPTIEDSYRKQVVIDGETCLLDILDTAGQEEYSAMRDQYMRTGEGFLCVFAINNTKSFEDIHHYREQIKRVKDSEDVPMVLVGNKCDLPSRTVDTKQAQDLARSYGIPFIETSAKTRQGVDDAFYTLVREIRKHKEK
KRAS G13D, sequence (P62937 whole entry): as the sequence (P62937 whole entry) above
NRAS Q61R, sequence (P01111 whole entry Q61R): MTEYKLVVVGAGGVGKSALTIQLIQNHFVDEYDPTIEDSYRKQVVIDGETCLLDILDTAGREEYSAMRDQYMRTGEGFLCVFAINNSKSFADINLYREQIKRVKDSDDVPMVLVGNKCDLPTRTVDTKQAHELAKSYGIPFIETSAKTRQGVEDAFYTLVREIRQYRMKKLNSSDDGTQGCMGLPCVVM
NRAS Q61R, sequence (P62937 whole entry): as the sequence (P62937 whole entry) above
KRAS G12V, sequence (P01116-2 other isoform, or with tags, fused parts or gaps G12V): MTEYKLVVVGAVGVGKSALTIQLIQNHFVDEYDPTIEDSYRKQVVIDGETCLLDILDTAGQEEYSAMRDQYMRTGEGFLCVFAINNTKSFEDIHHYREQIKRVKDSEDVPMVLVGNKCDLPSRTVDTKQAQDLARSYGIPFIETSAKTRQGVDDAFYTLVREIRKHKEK
KRAS G12V, sequence (P62937 whole entry): as the sequence (P62937 whole entry) above
NRAS WT, sequence (P01111 whole entry): as the sequence (P01111 whole entry Q61R) above, with R61Q counted along it
NRAS WT, sequence (P62937 whole entry): as the sequence (P62937 whole entry) above
K-Ras G13C, sequence (P01116-2 other isoform, or with tags, fused parts or gaps G13C): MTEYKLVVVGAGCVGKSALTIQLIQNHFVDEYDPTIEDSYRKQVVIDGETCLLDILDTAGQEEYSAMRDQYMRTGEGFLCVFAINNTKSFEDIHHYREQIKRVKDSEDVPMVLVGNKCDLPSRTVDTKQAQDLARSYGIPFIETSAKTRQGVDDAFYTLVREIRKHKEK
K-Ras G13C, sequence (P62937 whole entry): as the sequence (P62937 whole entry) above
NRAS Q61K, sequence (P01111 whole entry Q61K): as the sequence (P01111 whole entry Q61R) above, with R61K counted along it
NRAS Q61K, sequence (P62937 whole entry): as the sequence (P62937 whole entry) above
KRAS G12D, sequence (P01116-2 other isoform, or with tags, fused parts or gaps G12D): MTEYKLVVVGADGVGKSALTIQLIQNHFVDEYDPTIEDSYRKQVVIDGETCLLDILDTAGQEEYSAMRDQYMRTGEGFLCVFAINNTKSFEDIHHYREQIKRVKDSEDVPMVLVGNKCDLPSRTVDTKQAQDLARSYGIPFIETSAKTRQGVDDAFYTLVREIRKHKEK
KRAS G12D, sequence (P62937 whole entry): as the sequence (P62937 whole entry) above

Compound	IC50 (KRAS G13D) [nM]	IC50 (KRAS G12D) [µM]	IC50 (KRAS G12V) [nM]	IC50 (K-Ras G13C) [nM]	IC50 (NRAS Q61R) [nM]	IC50 (KRAS WT) [nM]	IC50 (KRAS G12S) [nM]	IC50 (NCI-H358 (K-Ras G12C)) [nM]	IC50 (NRAS WT) [nM]	IC50 (NRAS Q61K) [nM]
C=C(OC)C(=O)N1CC(N(C)C(=O)N(C)[C@H](C(=O)N[C@H]2Cc3nc(cs3)-c3ccc4c(c3)c(c(-c3cccnc3[C@H](C)OC)n4CC)CC(C)(C)COC(=O)[C@@H]3CCCN(N3)C2=O)C(C)C)C1 (atropisomer, axis not shown) [Example A713]	1000 to 10000	1 to 10	1000 to 10000	1000 to 10000	100 to 1000	100 to 1000	100 to 1000	10 to 100	100 to 1000	100 to 1000
C=CC(=O)N1CC[C@H](C(=O)N(C)[C@H](C(=O)N[C@H]2CN3CCC=C(C3)c3ccc4c(c3)c(c(-c3cccnc3[C@H](C)OC)n4CC)CC(C)(C)COC(=O)[C@@H]3CCCN(N3)C2=O)C(C)C)C1 (atropisomer, axis not shown) [Example A716, (3S)-1-acryloyl-N-((2S)-1-(((6^3S,4S)-1^1-ethyl-1^2-(2-((S)-1-methoxyethyl)pyridin-3-yl)-10,10-dimethyl-5,7-dioxo-2^1,2^2,2^3,2^6,6^1,6^2,6^3,6^4,6^5,6^6-decahydro-1^1H-8-oxa-1(5,3)-indola-6(1,3)-pyridazina-2(5,1)-pyridinacycloundecaphane-4-yl)amino)-3-methyl-1-oxobutan-2-yl)-N-methylpyrrolidine-3-carboxamide]	> 10000	> 10	1000 to 10000	1000 to 10000	> 10000	1000 to 10000	1000 to 10000	10 to 100	1000 to 10000	> 10000
CCn1c(-c2cccnc2[C@H](C)OC)c2c3cc(ccc31)-c1nc(nn1C)C[C@H](NC(=O)[C@@H](COC1CN(C(=O)C#CC(C)(C)N(C)C)C1)C(C)C)C(=O)N1CCC[C@H](N1)C(=O)OCC(C)(C)C2 (atropisomer, axis not shown) [Example A720, (2R)-2-(((1-(4-(dimethylamino)-4-methylpent-2-ynoyl)azetidin-3-yl)oxy)methyl)-N-((6^3S,4S,Z)-1^1-ethyl-1^2-(2-((S)-1-methoxyethyl)pyridin-3-yl)-2^1,10,10-trimethyl-5,7-dioxo-6^1,6^2,6^3,6^4,6^5,6^6-hexahydro-1^1H,2^1H-8-oxa-1(5,3)-indola-6(1,3)-pyridazina-2(5,3)-triazolacycloundecaphane-4-yl)-3-methylbutanamide]	1000 to 10000	> 10	1000 to 10000	1000 to 10000	1000 to 10000	1000 to 10000	1000 to 10000	10 to 100	1000 to 10000	1000 to 10000
C=CC(=O)N1CCC(F)(C(=O)N(C)[C@H](C(=O)N[C@H]2C[C@H]3CN(CCO3)c3ccc4c(c3)c(c(-c3cccnc3[C@H](C)OC)n4CC)CC(C)(C)COC(=O)[C@@H]3CCCN(N3)C2=O)C(C)C)CC1 (atropisomer, axis not shown) [Example A722, 1-acryloyl-N-((2S)-1-(((6^3S,4S)-1^1-ethyl-1^2-(2-((S)-1-methoxyethyl)pyridin-3-yl)-10,10-dimethyl-5,7-dioxo-6^1,6^2,6^3,6^4,6^5,6^6-hexahydro-1^1H-8-oxa-2(4,2)-morpholina-1(5,3)-indola-6(1,3)-pyridazinacycloundecaphane-4-yl)amino)-3-methyl-1-oxobutan-2-yl)-4-fluoro-N-methylpiperidine-4-carboxamide]	1000 to 10000	1 to 10	1000 to 10000	100 to 1000	1000 to 10000	100 to 1000	1000 to 10000	10 to 100	100 to 1000	1000 to 10000
C=CC(=O)N1CC(OC[C@H](C(=O)N[C@H]2C[C@H]3CN(CCO3)c3ccc4c(c3)c(c(-c3cccnc3[C@H](C)OC)n4CC(F)(F)F)CC(C)(C)COC(=O)[C@@H]3CCCN(N3)C2=O)C(C)C)C1 (atropisomer, axis not shown) [Example A723]	> 10000	> 10	1000 to 10000	1000 to 10000	> 10000	1000 to 10000	1000 to 10000	10 to 100	1000 to 10000	> 10000
CCn1c(-c2cccnc2[C@H](C)OC)c2c3cc(ccc31)-c1csc(n1)C[C@H](NC(=O)[C@H](C(C)C)N(C)C(=O)N(C)C1CN(C(=O)/C=C/[C@H]3CCCN3C)C1)C(=O)N1CCC[C@H](N1)C(=O)OCC(C)(C)C2 (atropisomer, axis not shown) [Example A729]	100 to 1000	1 to 10	1000 to 10000	100 to 1000	1000 to 10000	100 to 1000	100 to 1000	100 to 1000	100 to 1000	100 to 1000
CCn1c(-c2cccnc2[C@H](C)OC)c2c3cc(ccc31)-c1csc(n1)C[C@H](NC(=O)[C@H](C(C)C)N(C)C(=O)N(C)C1CN(C(=O)/C=C/[C@@H]3CCCN3C)C1)C(=O)N1CCC[C@H](N1)C(=O)OCC(C)(C)C2 (atropisomer, axis not shown) [Example A730]	100 to 1000	1 to 10	1000 to 10000	100 to 1000	1000 to 10000	100 to 1000	100 to 1000	10 to 100	100 to 1000	100 to 1000
CC#CC(=O)N1CC(N(C)C(=O)N(C)[C@H](C(=O)N[C@H]2Cc3nc(cs3)-c3ccc4c(c3)c(c(-c3cccnc3[C@H](C)OC)n4CC)CC(C)(C)COC(=O)[C@@H]3CCCN(N3)C2=O)C(C)C)C1 (atropisomer, axis not shown) [Example A731]	1000 to 10000	1 to 10	1000 to 10000	100 to 1000	1000 to 10000	100 to 1000	100 to 1000	100 to 1000	100 to 1000	100 to 1000
C=C(F)C(=O)N1CC(N(C)C(=O)N(C)[C@H](C(=O)N[C@H]2Cc3nc(cs3)-c3ccc4c(c3)c(c(-c3cccnc3[C@H](C)OC)n4CC)CC(C)(C)COC(=O)[C@@H]3CCCN(N3)C2=O)C(C)C)C1 (atropisomer, axis not shown) [Example A732]	1000 to 10000	1 to 10	1000 to 10000	100 to 1000	100 to 1000	100 to 1000	100 to 1000	10 to 100	100 to 1000	100 to 1000
C=CC(=O)N1CCN(C(=O)N(C)[C@H](C(=O)N[C@H]2Cc3nc(cs3)-c3ccc4c(c3)c(c(-c3cccnc3[C@H](C)OC)n4CC)CC(C)(C)COC(=O)[C@@H]3CCCN(N3)C2=O)C(C)C)[C@H]2C[C@H]21 (atropisomer, axis not shown) [Example A737]	100 to 1000	0.1 to 1	100 to 1000	10 to 100	10 to 100	10 to 100	100 to 1000	10 to 100	10 to 100	10 to 100
